Tests used:
Format in all cases: in vivo
[1] = tested on: Setaria faberi (SETFA); experiment: Post-emergence herbicidal glasshouse test, SETFA; conditions: 125 g/h, evaluated after 13 days, five-point scale
Procedure: (§1) Seeds of a variety of test species are sown in standard soil in pots (Lolium perenne (LOLPE), Amaranthus retoflexus (AMARE), Abutilon theophrasti (ABUTH), Setaria faberi (SETFA), Echinochloa crus-galli (ECHCG), Ipomoea hederacea (IPOHE)). After cultivation for one day (pre-emergence) or after 8 days cultivation (post-emergence) under controlled conditions in a glasshouse (at 24/16° C., day/night; 14 hours light; 65% humidity), the plants are sprayed with an aqueous spray solution derived from the formulation of the technical active ingredient in acetone/water (50:50) solution containing 0.5% Tween 20 (polyoxyethelyene sorbitan monolaurate, CAS RN 9005-64-5). Compounds are applied at 125 g/h unless otherwise indicated. The test plants are then grown in a glasshouse under controlled conditions in a glasshouse (at 24/16° C., day/night; 14 hours light; 65% humidity) and watered twice daily. After 13 days for pre and post-emergence, the test is evaluated for the percentage damage caused to the plant. The biological activities are shown in the following table on a five-point scale (5=80-100%; 4=60-79%; 3=40-59%; 2=20-39%; 1=0-19%). “—” denotes not tested on this species or data not captured.

[2] = tested on: Ipomoea hederacea (IPOHE); experiment: Pre-emergence herbicidal glasshouse test, IPOHE; conditions: 125 g/h, evaluated after 13 days, five-point scale
Procedure: as §1

[3] = tested on: Amaranthus retoflexus (AMARE); experiment: Post-emergence herbicidal glasshouse test, AMARE; set-up: dose or concentration left out as unconfirmed; conditions: evaluated after 13 days, five-point scale
Procedure: as §1

[4] = tested on: Ipomoea hederacea (IPOHE); experiment: Post-emergence herbicidal glasshouse test, IPOHE; conditions: 125 g/h, evaluated after 13 days, five-point scale
Procedure: as §1

[5] = tested on: Setaria faberi (SETFA); experiment: Pre-emergence herbicidal glasshouse test, SETFA; conditions: 125 g/h, evaluated after 13 days, five-point scale
Procedure: as §1

[6] = tested on: Amaranthus retoflexus (AMARE); experiment: Pre-emergence herbicidal glasshouse test, AMARE; conditions: 125 g/h, evaluated after 13 days, five-point scale
Procedure: as §1

[7] = tested on: Echinochloa crus-galli (ECHCG); experiment: Pre-emergence herbicidal glasshouse test, ECHCG; conditions: 125 g/h, evaluated after 13 days, five-point scale
Procedure: as §1

[8] = tested on: Echinochloa crus-galli (ECHCG); experiment: Post-emergence herbicidal glasshouse test, ECHCG; conditions: 125 g/h, evaluated after 13 days, five-point scale
Procedure: as §1

| Structure (SMILES) | percentage damage caused to the plant, POST Application SETFA [1] | percentage damage caused to the plant, PRE Application IPOHE [2] | percentage damage caused to the plant, POST Application AMARE [3] | percentage damage caused to the plant, POST Application IPOHE [4] | percentage damage caused to the plant, PRE Application SETFA [5] | percentage damage caused to the plant, PRE Application AMARE [6] | percentage damage caused to the plant, PRE Application ECHCG [7] | percentage damage caused to the plant, POST Application ECHCG [8] |
| --- | --- | --- | --- | --- | --- | --- | --- | --- |
| COCCOC(=O)Nc1c(OC(F)F)ccc(C(=O)Nc2nnnn2C)c1Cl [Compound 1.018] | 5 (5=80-100%) | 2 (2=20-39%) | 4 (4=60-79%) | 4 (4=60-79%) | 3 (3=40-59%) | 4 (4=60-79%) | 4 (4=60-79%) | 5 (5=80-100%) |
| COCCCOC(=O)Nc1c(OC(F)(F)F)ccc(C(=O)Nc2nnnn2C)c1Cl [Compound 1.019] | 5 (5=80-100%) | 4 (4=60-79%) | 5 (5=80-100%) | 4 (4=60-79%) | 2 (2=20-39%) | 3 (3=40-59%) | 5 (5=80-100%) | 5 (5=80-100%) |
| Cn1nnnc1NC(=O)c1ccc(OC(F)(F)F)c(NC(=O)OC2CCOCC2)c1Cl [Compound 1.020] | 5 (5=80-100%) | 5 (5=80-100%) | 5 (5=80-100%) | 5 (5=80-100%) | 5 (5=80-100%) | 5 (5=80-100%) | 5 (5=80-100%) | 5 (5=80-100%) |
| CC(=O)N1CCC(OC(=O)Nc2c(OC(F)(F)F)ccc(C(=O)Nc3nnnn3C)c2Cl)CC1 [Compound 1.021] | 4 (4=60-79%) | 2 (2=20-39%) | 4 (4=60-79%) | 2 (2=20-39%) | 1 (1=0-19%) | 3 (3=40-59%) | 1 (1=0-19%) | 5 (5=80-100%) |
| COCCCOC(=O)Nc1c(OC(F)F)ccc(C(=O)Nc2nnnn2C)c1Cl [Compound 1.022] | 5 (5=80-100%) | 4 (4=60-79%) | 5 (5=80-100%) | 4 (4=60-79%) | 4 (4=60-79%) | 5 (5=80-100%) | 4 (4=60-79%) | 5 (5=80-100%) |
| CC(=O)N1CCC(OC(=O)Nc2c(OC(F)F)ccc(C(=O)Nc3nnnn3C)c2Cl)CC1 [Compound 1.023] | 2 (2=20-39%) | 2 (2=20-39%) | 4 (4=60-79%) | 1 (1=0-19%) | 1 (1=0-19%) | 3 (3=40-59%) | 1 (1=0-19%) | 3 (3=40-59%) |
| Cn1nnnc1NC(=O)c1ccc(OC(F)F)c(NC(=O)OCCC#N)c1Cl [Compound 1.024] | 5 (5=80-100%) | 5 (5=80-100%) | 5 (5=80-100%) | 4 (4=60-79%) | 3 (3=40-59%) | 5 (5=80-100%) | 4 (4=60-79%) | 5 (5=80-100%) |
| Cn1nnnc1NC(=O)c1ccc(OC(F)F)c(NC(=O)OC2CCOCC2)c1Cl [Compound 1.027] | 5 (5=80-100%) | 4 (4=60-79%) | 5 (5=80-100%) | 5 (5=80-100%) | 5 (5=80-100%) | 4 (4=60-79%) | 4 (4=60-79%) | 5 (5=80-100%) |
| CCOC(=O)N(CC)c1c(OC(F)(F)F)ccc(C(=O)Nc2nnnn2C)c1Cl [Compound 1.031] | 5 (5=80-100%) | 5 (5=80-100%) | 5 (5=80-100%) | 5 (5=80-100%) | 5 (5=80-100%) | 5 (5=80-100%) | 5 (5=80-100%) | 5 (5=80-100%) |
| COC(=O)Nc1c(OC(F)(F)F)ccc(C(=O)Nc2nnnn2C)c1C [Compound 1.035] | 5 (5=80-100%) | 3 (3=40-59%) | 5 (5=80-100%) | 3 (3=40-59%) | 5 (5=80-100%) | 5 (5=80-100%) | 5 (5=80-100%) | 5 (5=80-100%) |
| CCOC(=O)Nc1c(OC(F)(F)F)ccc(C(=O)Nc2nnnn2C)c1C [Compound 1.036] | 5 (5=80-100%) | 5 (5=80-100%) | 5 (5=80-100%) | 5 (5=80-100%) | 5 (5=80-100%) | 5 (5=80-100%) | 5 (5=80-100%) | 5 (5=80-100%) |
